# Assay results reported in patent publication US20230097801A1, “METHODS OF INCREASING CELL PHAGOCYTOSIS” (National Health Research Institutes, priority 2021, published 2023).
# pIC50: −log10 of the molar value. “Also recorded” adds a separate entry of the source. Where two headings read alike, the source gives them in different places.
# Experiments:
# CD47 [1] = test: Flow cytometry, anti-human CD47 CC2C6 antibody binding on DLD-1 cell surface; type: cell-based
# Description: Binding between CD47 and SIRPα was studied by measuring the level of CD47 binding using any suitable method. Flow cytometric analysis is useful to quantify the level of binding of CD47 to antibody CC2C6, which is then subjected to an immune-staining procedure using fluorochrome-conjugated secondary antibody followed by analysis of the immune-staining signal with a flow cytometry instrument to obtain the level of the CD47-CC2C6 binding. In another method, analysis of CD47 is performed using SIRPα-Fc formed from SIRPα fused with human IgG1, which is then subjected to an immune-staining procedure using fluorochrome-conjugated secondary antibody against human IgG1, followed by analysis of the immune-staining signal. SIRPα is expressed on the surface of a myeloid cell such as macrophage, monocyte, neutrophil, or dendritic cell. Alternatively, SIRPα is fused with human IgG1 to form a SIRPα-Fc recombinant protein. […] An anti-cancer agent (e.g., rituximab) can be used together with a compound of formula (I). Useful anti-cancer agents are described above including anti-PD-L1 antibodies, anti-CD20 antibodies, anti-HER2 antibodies, anti-EGFR antibodies, and anti-CD47 antibodies. Other suitable anti-cancer agents are chemotherapeutic agents such as doxorubicin, epirubicin, idarubicin, methotrexate, mitoxantrone, oxaliplatin, and cyclophosphamide.
# Human colon cancer DLD-1 cells were obtained from NHRI IBPR HTS Lab, Taiwan. DLD-1 cells were maintained under the same conditions described immediately above.
# (§1) Antibody conjugates and extracellular domain of SIRPα used to analyze cell surface CD47 binding include anti-human CD47 CC2C6, 2D3, recombinant human SIRPα/CD172a Fc chimer protein, and anti-human IgG Fc. To determine inhibition of CD47 binding, cancer cells were treated with compounds of formula (I) at various concentrations for 4 days. Thereafter, the cells were washed with PBS containing 0.5% BSA (FACS buffer) followed by incubation with fluorochrome-labeled antibodies to human CD47 (i.e., CC2C6 and 2D3) at 1:50 dilution in FACS buffer for 30 minutes at 4° C. Compounds of formula (I) produced a dose-dependent inhibition of anti-CD47 CC2C6 antibody that recognized CD47 and SIRPα binding site on the tumor cell surface including B-cell lymphoma Raji cells, colon cancer cells DLD-1, and ovarian cancer SK-OV-3 cells (see FIGS. 1A, 1B, and 1C, respectively).
# CD47 [2] = test: Flow cytometry, anti-human CD47 2D3 control antibody binding on Raji cell surface; type: cell-based; settings: Raji cells
# Description: as §1
# [3] = test system: human B-cell lymphoma Raji xenograft tumor; test: Raji xenograft anti-tumor efficacy and survival study (3 weeks treatment); type: in vivo, NOD/SCID mice; settings: Compound 34 100 mg/kg p.o. QD*5, rituximab 10 mg/kg i.p. 2QW
# From the text: Human B-cell lymphoma Raji cells were used to evaluate the efficacy of Compound 34 and rituximab in treating cancer cells. Prior to injection into animals, the cancer cells were detected as free of Mycoplasma spp. NOD/SCID mice (BioLasco, Taiwan) were used for in vivo experiments due to their higher affinity of SIRPα to human CD47. The mice used in these studies were housed in Institutional Animal Care and Use Committees-approved facility at National Health Research Institutes in accordance with guidelines for the care and use of laboratory animals.
# One million Raji cells in culture medium and matrigel (1:1, v/v) were injected subcutaneously into the left flank region of the mice (n=7 to 10 animals per group). Treatments were initiated after randomization with inclusion of tumors at approximately 100 mm^3. A dosing vehicle for Compound 34 was prepared using 10% DMA: 40% PEG400: 50% (1% CMC) (v/v/v) and was dosed orally (p.o.) at 100 mg/kg once a day, 5 days a week (Q.D.*5). Rituximab (Roche-Genentech, South San Francisco, Calif.) stock solution was diluted with PBS and dosed at 10 mg/kg twice a week (2QW) by intraperitoneal (i.p.) injection.
# To evaluate anti-tumor efficacy and survival rates, mice were treated with vehicle control, 10 mg/kg rituximab (2QW, i.p.), 100 mg/kg Compound 34 (QD*5), or rituximab in combination with Compound 34. Treatment was discontinued at the end of 3 weeks. The mice were monitored for cancer growth and body weight once a week. Cancer growth was measured by volume with an electronic caliper. The volume was calculated as L×W^2/2, in which L is the length of the tumor and W is its width. Tumor size and animal body weight were measured once a week after cancer cell inoculation. Cancer response at the end of the study was calculated as tumor growth inhibition (TGI) using (1−T/C)*100, in which T is the mean tumor volume (mm^3) of the test group, and C is the mean tumor volume (mm^3) of the vehicle-treated group. […] For the survival study, treatment was discontinued at the end of 3 weeks. Thereafter, mice were followed up for tumor growth and body weight once a week. The mice were then sacrificed when tumor volume reached 2,000 mm^3 or body weight loss was greater than 10%. Kaplan-Meier plots were used as the study end point to calculate percentage of animals remaining in the study in term of the time. The median survival days for vehicle control and Compound 34 were 15.5 days and 18 days, respectively (FIG. 5E). Rituximab prolonged median survival days to 28 days after treatment discontinued (FIGS. 5C and 5E). Importantly, the combination of rituximab and Compound 34 further prolonged median survival days to 47 days (FIGS. 5D and 5E).
# [4] = Plasma and tumor concentrations in Raji xenograft mice; type: in vivo; settings: for concentration at 2 h: 2 hours after the last dose
# Description: A pharmacokinetic study was conducted to evaluate plasma and tumor concentrations of Compound 34 using human B-cell lymphoma Raji xenograft tumors. One million Raji cells in culture medium and matrigel (1:1, v/v) were injected subcutaneously into the left flank region of each mouse. Treatments were initiated after randomization with inclusion of tumors at approximately 90 mm^3. A dosing vehicle for Compound 34 was prepared using 10% DMA: 40% PEG400: 50% (1% CMC) (v/v/v) and was dosed orally (p.o.) at 100 mg/kg once a day and 5 days a week (Q.D.*5). The mice were treated with either the vehicle control or Compound 34 for 3 weeks. They were sacrificed 2, 4, 8, or 24 hours after the last dose (n=4 per time point). Tumor and plasma were collected to determine concentrations of Compound 34.
smiles,measurement,setting,value
O=C1NC[C@H](c2ccc(-c3csc(C(F)(F)F)c3)c(F)c2F)N1c1ccc2[nH]cnc2c1 [Compound 34],pIC50,"CD47 [1]; Colon Cancer (DLD-1 cells), 4 days treatment, read-out: IC50, inhibition of CC2C6 binding",6.24
same,inhibition of binding of anti-human CD47 antibody CC2C6 (in words),CD47 [1]; DLD-1 cells,effectively inhibited
same,inhibition of binding of anti-human CD47 antibody 2D3 (in words),CD47 [2],not by anti-CD47 control antibody 2D3; also recorded: did not inhibit
same,"tumor growth inhibition (TGI, % of control)",[3]; 3 weeks,41.4%
same,median survival days,[3]; treatment discontinued at 3 weeks,18 days
same,tumor concentration,"[4]; 100 mg/kg p.o. QD*5 for 3 weeks, next 22 hours (2 to 24 hours after the last dose)","≥ 27,507 ng/g tissue weight"
same,concentration at 2 h,"[4]; mouse, plasma, oral, 100 mg/kg p.o. QD*5 for 3 weeks, read-out: plasma concentration",18600 ng/mL
same,concentration at 24 h,"[4]; mouse, plasma, oral, 100 mg/kg p.o. QD*5 for 3 weeks, 24 hours after the last dose",5360 ng/mL
same,concentration at 2 h,"[4]; mouse, tumor, oral, 100 mg/kg p.o. QD*5 for 3 weeks, read-out: tumor concentration",29700 ng/g
same,tumor concentrations versus plasma (in words),[4]; within 24 hours post treatment,much higher than those in plasma
